According to ChEMBL document CHEMBL1201862, “PubChem BioAssay data set” (2004):
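Protocol summary: plate cells (96-well), add compound at 5 concentrations, incubate 48 h, interpolate endpoints linearly. The concentration for 50% growth inhibition is given as GI50.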 Activity calls are given as the source filed them. Rule as the data show it: active = GI50 up to about 1.1 µM and inactive = higher.

Legend:
Experiment in all cases: DTP human tumour cell line panel, 48 h
HCC 2998 = system: HCC 2998
OVCAR-8 = system: OVCAR-8
OVCAR-5 = system: OVCAR-5
PC-3 = system: PC-3
U-251 = system: U-251
DU-145 = system: DU-145
CAKI-1 = system: CAKI-1
ACHN = system: ACHN
IGROV-1 = system: IGROV-1
HOP-62 = system: HOP-62
MDA-MB-231 = system: MDA-MB-231
SK-MEL-28 = system: SK-MEL-28
NCI-H226 = system: NCI-H226
MOLT-4 = system: MOLT-4
MDA-N = system: MDA-N
MCF7 = system: MCF7
SR = system: SR
NCI/ADR-RES = system: NCI/ADR-RES
M14 = system: M14

Row | SMILES | GI50 (HCC 2998) | GI50 (OVCAR-8) | GI50 (OVCAR-5) | GI50 (PC-3) | GI50 (U-251) | GI50 (DU-145) | GI50 (CAKI-1) | GI50 (ACHN) | GI50 (IGROV-1) | GI50 (HOP-62) | GI50 (MDA-MB-231) | GI50 (SK-MEL-28) | GI50 (NCI-H226) | GI50 (MOLT-4) | GI50 (MDA-N) | GI50 (MCF7) | GI50 (SR) | GI50 (NCI/ADR-RES) | GI50 (M14)
1 | NC(Cc1ccc(O)cn1)C(=O)O (configuration not stated) | > 100 µM (inactive) | > 100 µM (inactive) | > 100 µM (inactive) | > 100 µM (inactive) | 35.2 µM (inactive) | > 100 µM (inactive) | > 100 µM (inactive) | > 100 µM (inactive) | > 100 µM (inactive) | > 100 µM (inactive) | > 100 µM (inactive) | > 100 µM (inactive) | > 100 µM (inactive) | > 100 µM (inactive) | > 100 µM (inactive) | > 100 µM (inactive) | > 100 µM (inactive) | > 100 µM (inactive) | –
2 | C[C@H]1CC[C@@]2(NC1)O[C@H]1C[C@H]3[C@@H]4CC[C@H]5C[C@@H](O)CC[C@]5(C)[C@H]4CC[C@]3(C)[C@H]1[C@@H]2C | > 100 µM (inactive) | 38.8 µM (inactive) | > 100 µM (inactive) | > 100 µM (inactive) | – | > 100 µM (inactive) | > 100 µM (inactive) | 39.5 µM (inactive) | 71.6 µM (inactive) | 18.7 µM (inactive) | 32.2 µM (inactive) | – | > 100 µM (inactive) | > 100 µM (inactive) | > 100 µM (inactive) | > 100 µM (inactive) | 22.9 µM (inactive) | 49.2 µM (inactive) | > 100 µM (inactive)
3 | C=C1C(=O)O[C@H]2C/C(C)=C/CC/C(C)=C/CC[C@@](C)(O)[C@@H](I)C[C@@H]12 | 12.5 µM (inactive) | 0.791 µM (active) | 14.5 µM (inactive) | 8.26 µM (inactive) | 13.6 µM (inactive) | 9.44 µM (inactive) | 8.93 µM (inactive) | 8.77 µM (inactive) | 3.15 µM (inactive) | 16.4 µM (inactive) | 12.8 µM (inactive) | 13.6 µM (inactive) | 3.42 µM (inactive) | 2.37 µM (inactive) | 3.33 µM (inactive) | 5.57 µM (inactive) | 2.67 µM (inactive) | 6.3 µM (inactive) | 9.64 µM (inactive)
4 | C/C=C1/CN2CCc3c([nH]c4ccccc34)[C@@H]2C[C@@H]1Cc1nccc2c1[nH]c1cc(O)ccc12 | 1.42 µM (inactive) | 1.9 µM (inactive) | 2.93 µM (inactive) | 2.25 µM (inactive) | 2.19 µM (inactive) | 2.07 µM (inactive) | 1.73 µM (inactive) | 2.29 µM (inactive) | – | 1.98 µM (inactive) | 1.64 µM (inactive) | 1.92 µM (inactive) | 3.85 µM (inactive) | 2.58 µM (inactive) | 2.01 µM (inactive) | 2.62 µM (inactive) | 11.7 µM (inactive) | 1.72 µM (inactive) | 2.16 µM (inactive)
5 | CC1(C)C(CBr)=[N+]([O-])C(C)(C)N1O | > 10 µM (inactive) | > 6.97 µM (inactive) | > 10 µM (inactive) | > 10 µM (inactive) | > 10 µM (inactive) | > 10 µM (inactive) | 2.56 µM (inactive) | 3.68 µM (inactive) | > 6.31 µM (inactive) | > 10 µM (inactive) | > 6.76 µM (inactive) | > 10 µM (inactive) | > 10 µM (inactive) | 2.57 µM (inactive) | 3.99 µM (inactive) | 4.91 µM (inactive) | > 3.74 µM (inactive) | > 7.24 µM (inactive) | 2.37 µM (inactive)
6 | COC(=O)C1=C(C(=O)OC)C(C(=O)c2ccccc2)N2N=C(c3ccc(Cl)cc3)C=CC12 (configuration not stated) | > 100 µM (inactive) | 12.4 µM (inactive) | > 100 µM (inactive) | 9.82 µM (inactive) | > 100 µM (inactive) | > 100 µM (inactive) | > 100 µM (inactive) | > 100 µM (inactive) | – | > 100 µM (inactive) | > 100 µM (inactive) | > 100 µM (inactive) | 13.9 µM (inactive) | 5.69 µM (inactive) | 15.3 µM (inactive) | 75.7 µM (inactive) | > 100 µM (inactive) | 8.07 µM (inactive) | > 100 µM (inactive)
7 | C=C1C(=O)OC2/C=C(\C)CC/C=C(\C)CC(OC(=O)/C(=C/CO)CO)[C@@H]12 (some centres not stated) | 18.7 µM (inactive) | 1.98 µM (inactive) | 17.3 µM (inactive) | 16.9 µM (inactive) | 1.4 µM (inactive) | 20 µM (inactive) | 4.12 µM (inactive) | 6.21 µM (inactive) | 10.5 µM (inactive) | – | 13.7 µM (inactive) | 15 µM (inactive) | 32.8 µM (inactive) | 2.14 µM (inactive) | 5.45 µM (inactive) | 4.46 µM (inactive) | 9.73 µM (inactive) | 20 µM (inactive) | 3.9 µM (inactive)
